The values that follow come from patent US20260209152A1, “Substituted Hydroxystilbene Compounds and Derivatives, Synthesis and Uses Thereof” (Kynan Duke IP, LLC, priority 2019, published 2026).

Common to all, as to assay type: cell-based, human
The test system of test [1] is Kidney A-498. The test can be described thus: CellTiter Glo cell viability assay. To be noted: read-out: IC50. The procedure: 1.7*10^3 cells/well were seeded in quadruplicates in 96-well plate after plating. […] Cell growth was assessed on day 1, 3 and 5 after drug treatments using the CellTiter Glo Luminescence Cell Viability Assay (Promega) according to manufacturer's protocol. Thermo Scientific Varioskan LUX Multimode Microplate instrument was used for plate reading. Data are expressed as mean luminescence (arbitrary units) ±S.D.
Cell Viability Assays were employed to determine the concentration of Compound 1 (KYN-001) and analogues where the response is reduced by half. […] GraphPad Prism 7 software was used to fit dose response curves. Relative Luminescence Units were plotted against the log values of the doses used and the nonlinear regression model was used for data analysis.
The protocol for cell proliferation was optimized for Compound 8 (KYN-119) to enable a more accurate assessment of its low IC50 value. […]
A general note: Cellular ATP, detected with luciferase, serves as a proxy for viable cell number.

For test [2], the system named is Pancreatic MIA PaCa-2. The test can be described thus: CellTiter Glo cell viability assay. To be noted: read-out: IC50. As for the experimental part: (§1) 1.7*10^3 cells/well were seeded in quadruplicates in 96-well plate after plating. Drugs were added at 5 μM and 2-fold dilutions over 18 concentrations (0.000038146-5 […] range) to generate a dose-response curve. Cell growth was assessed on day 1, 3 and 5 after drug treatments using the CellTiter Glo Luminescence Cell Viability Assay (Promega) according to manufacturer's protocol. Thermo Scientific Varioskan LUX Multimode Microplate instrument was used for plate reading. Data are expressed as mean luminescence (arbitrary units) ±S.D.
(§2) Cell Viability Assays were employed to determine the concentration of Compound 1 (KYN-001) and analogues where the response is reduced by half. For each treatment of cancer cells, 1, 2, 5, 10 and 20 μM solutions of compounds were applied. GraphPad Prism 7 software was used to fit dose response curves. Relative Luminescence Units were plotted against the log values of the doses used and the nonlinear regression model was used for data analysis.
(§3) The protocol for cell proliferation was optimized for Compound 8 (KYN-119) to enable a more accurate assessment of its low IC50 value. In this protocol, 18 dosages (2 fold dilutions ranging from 0.000038146 to 5 μM) were applied to cells seeded in 96-well plates, and Luminescence was measured after 1, 3 and 5 days upon treatments.
Day 3 upon treatment of MIA PaCa_2 pancreatic cancer cells, 24 h after plating (11 dilutions), as assessed by CellTiter Glow Assay.

For test [3], the system named is Cancer cells including pancreatic, bladder, kidney, colon, breast, lung, liver and osteosarcomas. Description: CellTiter Glo cell viability assay, panel of cancer cell lines. Particulars: SAR discussion based on IC50 values in Tables 1 to 5; compared with 1 [KYN-001]. The procedure:
Compounds 1 to 15 were evaluated and their effect on cancer growth examined in cell viability assays on multiple cancer types (Tables 1 to 5). Cancer cells including pancreatic, bladder, kidney, colon, breast, lung, liver and osteosarcomas obtained from ATCC (American Type Culture Collection) were authenticated before use by Short Tandem Repeat genomic analysis (Reid Y, Storts D, Riss T and Minor L. Authentication of Human Cell Lines by STR DNA Profiling Analysis. 2013 May 1. In: Markossian S, Sittampalam G S, Grossman A, et al., editors. Assay Guidance Manual. Bethesda (MD): Eli Lilly & Company and the National Center for Advancing Translational Sciences; 2004.). Experimental protocol for each cancer cell line was verified and optimized according to literature reports before use (Tables 1 to 3).
as §1, §2, §3

The mark [4] stands for this setting: Homo sapiens, A498, Table 5A: 11 dilutions 3-0.00001 μM, single experiments Exp E-K.
[5] abbreviates: Homo sapiens, MIA PaCa-2, 72 h, Table 4: 3 Days of treatment, 18 2-fold dilutions 5-0.00003 μM, Average (1, 8) or single Exp A-D.
Where [6] appears, read: Homo sapiens, A498, 72 h, Table 4: 3 Days of treatment, 18 2-fold dilutions 5-0.00003 μM, Average (1, 8) or single Exp A-D.
Setting [7] is: Table 5A: 11 dilutions 3-0.00001 μM, single experiments Exp E-K, listed as KYN-140.
The mark [8] stands for this setting: Homo sapiens, MIA PaCa-2, Table 5A: 11 dilutions 3-0.00001 μM, single experiments Exp E-K.
Where [9] appears, read: Table 5A: 11 dilutions 3-0.00001 μM, single experiments Exp E-K.
[10] abbreviates: Table 5A: 11 dilutions 3-0.00001 μM, single experiments Exp E-K, listed as KYN-139.

Structures are written as SMILES. Like-named read-outs stand apart in the source and are kept apart here. Some results are limits rather than exact numbers.

In the case of `COc1cc(/C=C/c2cc(O)cc(OC)c2CC=C(C)C)ccc1NS(C)(=O)=O` [Compound 25, (E)-N-(4-(5-hydroxy-3-methoxy-2-(3-methylbut-2-en-1-yl)styryl)-2-methoxyphenyl)methanesulfonamide], the 50% inhibitory concentration (IC50) was 15 µM in test [1] (setting [4]) and 7.74 µM in test [2] (setting [5]).

Take `CCOc1cc(O)cc(/C=C/c2ccc3[nH]c(=O)oc3c2)c1CC=C(C)C` [Compound 52, (E)-6-(3-Ethoxy-5-hydroxy-2-(3-methylbut-2-en-1-yl)styryl)benzo[d]oxazol-2(3H)-one]: the “Cancer cell viability inhibition, statement in words” value (“Cancer cell viability inhibition” for short) in test [3] is given as “no significant activity”.

Consider `COc1cc(/C=C\c2cc(O)cc(OC)c2CC=C(C)C)ccc1NS(C)(=O)=O` [Compound 26, (Z)—N-(4-(5-hydroxy-3-methoxy-2-(3-methylbut-2-en-1-yl)styryl)-2-methoxyphenyl)methanesulfonamide], for which the “Cancer cell viability inhibition” value in test [3] is “Total loss of the anti-proliferative effect”.

Regarding `C=CC(C)c1c(/C=C/c2ccc(O)c(OC)c2)cc(O)cc1OC` (centres unmarked) [Compound 4, (E)-4-(but-3-en-2-yl)-3-(4-hydroxy-3-methoxystyryl)-5-methoxyphenol], the IC50 was found to be 0.667 µM in test [1] (setting [6]), 0.754 µM in test [1] (setting [7]), 0.755 µM in test [2] (setting [5]) and 0.746 µM in test [2] (setting [7]).

`COc1cc(/C=C/c2cc(NC=O)cc(OC)c2CC=C(C)C)ccc1O` [Compound 44, (E)-N-(3-(4-Hydroxy-3-methoxystyryl)-5-methoxy-4-(3-methylbut-2-en-1-yl)phenyl)formamide]: the IC50 in test [1] (setting [4]) was found to be 2.04 µM; in test [2] (setting [8]), 1.16 µM. Besides, the “Cancer cell viability inhibition” value in test [3] is “No significant enhancement of activity”.

Regarding `CCOc1cc(O)cc(/C=C/c2ccc(O)c(NC=O)c2)c1CC=C(C)C` [Compound 41, (E)-N-(5-(3-Ethoxy-5-hydroxy-2-(3-methylbut-2-en-1-yl)styryl)-2-hydroxyphenyl)formamide], in test [2] (setting [8]), the IC50 was more than 3 µM. Further, the “Cancer cell viability inhibition” value in test [3] is “inactive or weakly active”.

Regarding `COc1cc(/C=C/c2cc(N)cc(OC)c2CC=C(C)C)ccc1O` [Compound 43, (E)-4-(5-Amino-3-methoxy-2-(3-methylbut-2-en-1-yl)styryl)-2-methoxyphenol], the IC50 in test [1] (setting [4]) and in test [2] (setting [8]) was approximately 3 µM each time. In addition, the “Cancer cell viability inhibition” value in test [3] is reported as “No significant enhancement of activity”.

With `CCOc1cc(O)cc(/C=C/c2ccc(NC=O)c(O)c2)c1CC=C(C)C` [Compound 40, (E)-N-(4-(3-Ethoxy-5-hydroxy-2-(3-methylbut-2-en-1-yl)styryl)-2-hydroxyphenyl)formamide], the IC50 in test [1] (setting [4]) is 2.93 µM; in test [2] (setting [8]), more than 3 µM. Besides, the “Cancer cell viability inhibition” value in test [3] is reported as “very strongly weakened activity”.

With `COc1cc(/C=C/c2cc(O)cc(OC)c2CC=C(C)C)cc(O)c1O` [Compound 18, (E)-5-(5-Hydroxy-3-methoxy-2-(3-methylbut-2-en-1-yl)styryl)-3-methoxybenzene-1,2-diol], the half-maximal inhibitory concentration (IC50) was approximately 3 µM in test [1] (setting [4]) and approximately 1 µM in test [2] (setting [8]).

As for `COc1cc(O)cc(/C=C/c2cc(O)cc(OC)c2CC=C(C)C)c1` [Compound 19, (E)-3-(3-Hydroxy-5-methoxystyryl)-5-methoxy-4-(3-methylbut-2-en-1-yl)phenol], the figures for the IC50 in test [1] (setting [4]) and in test [2] (setting [8]) were more than 3 µM and 0.921 µM, respectively. Besides, in test [3], the “Cancer cell viability inhibition” value is “strongly weakened activity”.

Take `CCOc1cc(O)cc(/C=C/c2ccc(NC(=O)CCC(=O)O)c(OC)c2)c1CC=C(C)C` [Compound 37, (E)-4-((4-(3-Ethoxy-5-hydroxy-2-(3-methylbut-2-en-1-yl)styryl)-2-methoxyphenyl)amino)-4-oxobutanoic acid]: in test [2] (setting [8]), the IC50 was more than 3 µM.

With `[H]/N=C(\N)Nc1ccc(C=Cc2cc(O)cc(OCC)c2CC=C(C)C)cc1OC` [Compound 38, (E)-1-(4-(3-ethoxy-5-hydroxy-2-(3-methylbut-2-en-1-yl)styryl)-2-methoxyphenyl)guanidine], the half-maximal inhibitory concentration (IC50) in test [1] (setting [4]) was 0.1 to 1 µM; in test [1] (setting [9]), approximately 0.1 µM; in test [2] (setting [8]), more than 3 µM.

As to `C/C=C\Cc1c(/C=C/c2ccc(O)c(OC)c2)cc(O)cc1OC` [Compound 3, 4-((Z)-but-2-en-1-yl)-3-((E)-4-hydroxy-3-methoxystyryl)-5-methoxyphenol], the 50% inhibitory concentration (IC50) came to 0.361 µM in test [1] (setting [6]), 0.545 µM in test [1] (setting [10]), 0.381 µM in test [2] (setting [5]) and 0.52 µM in test [2] (setting [10]).

In the case of `C/C=C/Cc1c(/C=C/c2ccc(O)c(OC)c2)cc(O)cc1OC` [Compound 2, 4-((E)-but-2-en-1-yl)-3-((E)-4-hydroxy-3-methoxystyryl)-5-methoxyphenol], the IC50 in test [1] (setting [6]) was 0.117 µM; in test [1] (setting [4]) it was 0.1 to 1 µM; in test [1] (setting [9]), 0.132 µM; in test [2] (setting [5]) it was 0.119 µM; in test [2] (setting [8]), 0.1 to 1 µM; in test [2] (setting [9]), 0.135 µM. The “Cancer cell viability inhibition” value in test [3] is reported as “biological activity comparable with 1”.

Take `COc1cc(O)cc(/C=C/c2ccc(O)c(N(C)C)c2)c1CC=C(C)C` [Compound 16, (E)-3-(3-(Dimethylamino)-4-hydroxystyryl)-5-methoxy-4-(3-methylbut-2-en-1-yl)phenol]: the IC50 in test [1] (setting [4]) and in test [2] (setting [8]) was more than 3 µM throughout. For the same compound, in test [3], the “Cancer cell viability inhibition” value was “inactive or weakly active”.

Consider `CCOc1cc(O)cc(/C=C/c2ccc(NCC(=O)OC)c(OC)c2)c1CC=C(C)C` [Compound 34, Methyl (E)-(4-(3-ethoxy-5-hydroxy-2-(3-methylbut-2-en-1-yl)styryl)-2-methoxyphenyl)glycinate], for which the half-inhibitory concentration (IC50) in test [2] (setting [8]) is 0.1 to 1 µM; in test [2] (setting [9]), 0.173 µM.

`COc1cc(/C=C/c2cc([N+](=O)[O-])cc(OC)c2CC=C(C)C)ccc1O` [Compound 42, (E)-2-Methoxy-4-(3-methoxy-2-(3-methylbut-2-en-1-yl)-5-nitrostyryl)phenol]: the IC50 in test [1] (setting [4]) was approximately 3 µM. The “Cancer cell viability inhibition” value in test [3] was “almost complete loss of anticancer activity”.

As to `CCOc1cc(O)cc(/C=C/c2ccc(NC(=O)CN)c(OC)c2)c1CC=C(C)C` [Compound 32, (E)-2-Amino-N-(4-(3-ethoxy-5-hydroxy-2-(3-methylbut-2-en-1-yl)styryl)-2-methoxyphenyl)acetamide], in test [1] (setting [4]), the IC50 was 1.83 µM.

For `COc1cc(/C=C/c2cc(O)cc(OC)c2CC=C(C)C)ccc1C(=O)O` [Compound 21, (E)-4-(5-Hydroxy-3-methoxy-2-(3-methylbut-2-en-1-yl)styryl)-2-methoxybenzoic acid], the IC50 in test [1] (setting [4]) is more than 3 µM; in test [1] (setting [9]) it was approximately 3 µM; in test [2] (setting [8]) it was more than 3 µM.

For `COc1cc(/C=C/c2cc(O)cc(C(F)(F)F)c2CC=C(C)C)ccc1O` [Compound 46, (E)-3-(4-hydroxy-3-methoxystyryl)-4-(3-methylbut-2-en-1-yl)-5-(trifluoromethyl)phenol], the “Cancer cell viability inhibition” value in test [3] is listed as “complete loss of biological activity”.

As for `C/C=C/Cc1c(/C=C/c2ccc(O)c(OC)c2)cc(O)cc1OCC` [Compound 5, 4-((E)-But-2-en-1-yl)-3-ethoxy-5-((E)-4-hydroxy-3-methoxystyryl)phenol], the IC50 in test [1] (setting [4]) was 1.19 µM; in test [2] (Table 5A: 11 dilutions 3-0.00001 μM, single experiments Exp E-K, listed as KYN-153) it was 0.0275 µM.

What is called IC50 is the point on the concentration scale where inhibition reaches its midpoint.
